Laboratory results taken from ChEMBL document CHEMBL1201862, “PubChem BioAssay data set” (2004).
The source made the active and inactive calls.

Tests used:
P388 = test: cells; assay type: functional; details: Mus musculus
P388/ADR = test: cells; assay type: functional; details: Mus musculus
SN12K1 = test: cells; assay type: functional; details: Homo sapiens
[1] = A cytotoxicity screen of small molecule inhibitors of the PhoP region in Salmonella typhi identified in the primary screen. [Related pubchem assays: 1850, 1864, 1985 ]; assay type: functional
Streptococcus = test: GAS UMAA2166 growth inhibition – luminescence, BacTiterGlo, counter-screen for streptokinase expression inhibitor project, dose response (AID 1915); assay type: functional, organism-based;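 note: potency for reduction of bacterial viability or growth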
[2] = system: Streptococcus sp. 'group A'; test: Streptococcus pyogenes SK(-)GAS viability under kanamycin – luminescence, BacTiterGlo, confirmation, counter-screen for streptokinase expression inhibitor project, dose response (AID 1900); assay type: functional, organism-based
Leucine aminopeptidase = target: T1, Leucine aminopeptidase (Plasmodium falciparum 3D7, UniProt Q8IL11); test: P. falciparum M17LAP inhibitors, primary screen, biochemical, fluorogenic H-Leu-NHMec substrate, 1536-well (AID 1619); assay type: functional
T1 sequence (Q8IL11 whole entry): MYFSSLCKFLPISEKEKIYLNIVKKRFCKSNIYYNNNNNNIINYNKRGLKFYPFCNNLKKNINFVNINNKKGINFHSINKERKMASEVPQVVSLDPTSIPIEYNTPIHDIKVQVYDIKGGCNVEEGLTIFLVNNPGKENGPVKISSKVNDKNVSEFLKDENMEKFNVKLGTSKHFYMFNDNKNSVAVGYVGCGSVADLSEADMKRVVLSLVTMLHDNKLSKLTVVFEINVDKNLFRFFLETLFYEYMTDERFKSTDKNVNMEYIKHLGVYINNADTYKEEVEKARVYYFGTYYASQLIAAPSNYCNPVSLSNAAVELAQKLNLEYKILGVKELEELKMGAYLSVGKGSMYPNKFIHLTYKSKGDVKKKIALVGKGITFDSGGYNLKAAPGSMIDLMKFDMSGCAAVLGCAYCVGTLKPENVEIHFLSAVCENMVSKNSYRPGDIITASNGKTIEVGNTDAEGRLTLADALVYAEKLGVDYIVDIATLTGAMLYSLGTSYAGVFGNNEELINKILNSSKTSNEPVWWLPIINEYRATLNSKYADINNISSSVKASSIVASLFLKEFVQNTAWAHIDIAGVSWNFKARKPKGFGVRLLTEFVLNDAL

[3] = target: 26S proteasome non-ATPase regulatory subunit 14 (Homo sapiens, UniProt O00487); test: inhibition of proteasome subunit RPN11 – biochemical, fluorescence polarization, uHTS hits, confirmation (AID 602368); assay type: functional
26S proteasome non-ATPase regulatory subunit 14, sequence (O00487 whole entry): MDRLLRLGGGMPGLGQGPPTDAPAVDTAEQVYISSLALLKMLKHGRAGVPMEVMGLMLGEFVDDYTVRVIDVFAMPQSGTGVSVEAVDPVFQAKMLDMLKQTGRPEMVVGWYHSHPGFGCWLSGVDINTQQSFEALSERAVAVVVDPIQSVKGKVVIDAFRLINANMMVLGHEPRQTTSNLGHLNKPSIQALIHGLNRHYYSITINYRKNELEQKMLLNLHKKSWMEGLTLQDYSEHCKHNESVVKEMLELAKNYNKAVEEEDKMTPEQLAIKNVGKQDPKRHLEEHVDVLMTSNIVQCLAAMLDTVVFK

Prothrombin = Prothrombin (Bos taurus, UniProt P00735); test: thrombin protease inhibitors – biochemical, fluorescence polarization, uHTS hits, dose response (AID 602369); assay type: functional
[4] = target: 72 kDa type IV collagenase (Homo sapiens, UniProt P08253); test: Dose Response validation of uHTS RPN11 inhibitor hits using a MMP-2 Fluorescence assay.; assay type: functional
72 kDa type IV collagenase, sequence (P08253 whole entry): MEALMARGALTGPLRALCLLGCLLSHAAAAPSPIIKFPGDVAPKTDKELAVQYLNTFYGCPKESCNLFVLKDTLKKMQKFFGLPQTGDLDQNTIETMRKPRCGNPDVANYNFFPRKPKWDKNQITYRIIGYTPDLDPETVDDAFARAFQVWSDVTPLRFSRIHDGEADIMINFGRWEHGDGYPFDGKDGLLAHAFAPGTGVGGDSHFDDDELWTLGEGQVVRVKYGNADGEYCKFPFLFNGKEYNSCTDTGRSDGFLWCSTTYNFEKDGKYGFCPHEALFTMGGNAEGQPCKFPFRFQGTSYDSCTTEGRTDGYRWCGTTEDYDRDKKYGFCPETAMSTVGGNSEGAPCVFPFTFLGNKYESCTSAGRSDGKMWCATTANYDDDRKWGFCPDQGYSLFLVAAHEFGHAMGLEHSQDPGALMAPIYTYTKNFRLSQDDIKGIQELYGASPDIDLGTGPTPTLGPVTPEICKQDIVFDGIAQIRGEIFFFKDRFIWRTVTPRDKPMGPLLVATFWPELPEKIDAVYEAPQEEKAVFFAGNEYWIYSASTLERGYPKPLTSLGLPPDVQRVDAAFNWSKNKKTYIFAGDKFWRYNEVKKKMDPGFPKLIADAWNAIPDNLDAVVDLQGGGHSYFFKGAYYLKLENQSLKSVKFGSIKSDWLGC

H9c2 = test: cells; assay type: functional, cell-based; details: Rattus norvegicus, H9c2, Myocardium;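 note: confirmatory concentration-response retest of ultra-high-throughput screening hits for modulation of myocardial damage; cell death induced by hydrogen peroxide oxidative stress; compound pretreatment for 60 min then peroxide exposure for 2 h; potency is for protecting the cells against peroxide damage rather than for killing them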
[5] = target: T2, Carboxy-terminal domain RNA polymerase II polypeptide A small phosphatase 1 (Homo sapiens, UniProt Q9GZU7); test: CTDSP1 inhibitors, concentration-response, biochemical, absorbance readout, ultra-high-throughput screen actives (AID 540297); assay type: functional
T2 sequence (Q9GZU7 whole entry): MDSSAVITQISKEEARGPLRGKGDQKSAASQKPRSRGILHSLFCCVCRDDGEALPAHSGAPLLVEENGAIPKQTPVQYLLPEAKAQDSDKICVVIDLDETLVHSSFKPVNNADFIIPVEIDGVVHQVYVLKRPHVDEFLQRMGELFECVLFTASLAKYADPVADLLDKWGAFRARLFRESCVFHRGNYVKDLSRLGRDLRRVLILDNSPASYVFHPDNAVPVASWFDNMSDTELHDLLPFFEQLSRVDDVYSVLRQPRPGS

Nonstructural protein 1 = Nonstructural protein 1 (Influenza A virus, UniProt Q194T2); assay type: functional, Influenza A virus (A/California/07/2009(H1N1))
Nonstructural protein 1, sequence (Q194T2 whole entry): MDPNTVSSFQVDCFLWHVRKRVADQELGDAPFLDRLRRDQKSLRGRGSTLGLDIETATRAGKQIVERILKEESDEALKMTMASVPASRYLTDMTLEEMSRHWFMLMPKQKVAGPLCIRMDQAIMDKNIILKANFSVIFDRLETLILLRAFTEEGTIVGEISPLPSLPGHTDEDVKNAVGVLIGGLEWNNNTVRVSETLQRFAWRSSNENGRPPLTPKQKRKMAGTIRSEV

[6] = target: T3, Corticotropin-releasing factor receptor 2/Corticotropin-releasing factor-binding protein (Homo sapiens, UniProt P24387+Q13324); test: activators of CRF receptor 2 with binding protein – uHTS hits, confirmation (AID 602473); assay type: functional; details: read-out: EC50_Mean
T3 sequence (Q13324 whole entry): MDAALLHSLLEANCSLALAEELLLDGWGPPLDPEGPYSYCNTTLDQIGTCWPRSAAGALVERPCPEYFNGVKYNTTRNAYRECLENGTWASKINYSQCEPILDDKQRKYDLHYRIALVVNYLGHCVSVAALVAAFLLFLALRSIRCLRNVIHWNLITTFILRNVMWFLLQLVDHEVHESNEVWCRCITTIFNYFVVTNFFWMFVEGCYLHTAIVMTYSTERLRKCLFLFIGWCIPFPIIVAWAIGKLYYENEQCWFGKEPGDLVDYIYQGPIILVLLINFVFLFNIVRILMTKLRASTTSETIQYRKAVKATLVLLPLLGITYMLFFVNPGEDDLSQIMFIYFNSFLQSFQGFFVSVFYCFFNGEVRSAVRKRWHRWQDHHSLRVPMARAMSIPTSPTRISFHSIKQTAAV
T3 sequence (P24387 whole entry): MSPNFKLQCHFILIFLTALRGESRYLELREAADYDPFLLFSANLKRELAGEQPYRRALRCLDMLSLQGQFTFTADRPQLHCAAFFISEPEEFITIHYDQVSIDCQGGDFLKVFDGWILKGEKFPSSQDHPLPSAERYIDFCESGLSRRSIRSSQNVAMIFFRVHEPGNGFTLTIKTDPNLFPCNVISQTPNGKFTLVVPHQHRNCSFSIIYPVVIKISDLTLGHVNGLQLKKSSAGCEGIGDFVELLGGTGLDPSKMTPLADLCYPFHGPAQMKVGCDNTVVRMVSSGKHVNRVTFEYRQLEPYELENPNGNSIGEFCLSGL

[7] = target: T4, RNA-binding protein pos-1 (Caenorhabditis elegans, UniProt G5EF15); test: disruptors of C. elegans POS-1 RNA interaction – biochemical, fluorescence polarization, dose response (AID 1964);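 note: purified POS-1 fused to maltose binding protein made in E. coli; potency of compounds blocking POS-1 binding to fluorescent RNA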
T4 sequence (G5EF15 whole entry): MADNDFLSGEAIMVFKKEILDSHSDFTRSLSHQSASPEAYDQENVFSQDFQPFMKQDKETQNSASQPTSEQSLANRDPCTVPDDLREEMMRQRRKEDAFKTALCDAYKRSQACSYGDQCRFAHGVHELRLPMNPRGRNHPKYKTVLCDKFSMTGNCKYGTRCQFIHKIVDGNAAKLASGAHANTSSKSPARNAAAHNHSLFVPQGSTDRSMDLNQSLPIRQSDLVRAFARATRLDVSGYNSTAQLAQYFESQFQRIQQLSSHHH

[8] = target: T5, Zinc finger protein mex-5 (Caenorhabditis elegans, UniProt Q9XUB2); test: potency of MEX-5 RNA-binding blockers – biochemical, C. elegans, fluorescence polarization, dose response (AID 1960)
T5 sequence (Q9XUB2 whole entry): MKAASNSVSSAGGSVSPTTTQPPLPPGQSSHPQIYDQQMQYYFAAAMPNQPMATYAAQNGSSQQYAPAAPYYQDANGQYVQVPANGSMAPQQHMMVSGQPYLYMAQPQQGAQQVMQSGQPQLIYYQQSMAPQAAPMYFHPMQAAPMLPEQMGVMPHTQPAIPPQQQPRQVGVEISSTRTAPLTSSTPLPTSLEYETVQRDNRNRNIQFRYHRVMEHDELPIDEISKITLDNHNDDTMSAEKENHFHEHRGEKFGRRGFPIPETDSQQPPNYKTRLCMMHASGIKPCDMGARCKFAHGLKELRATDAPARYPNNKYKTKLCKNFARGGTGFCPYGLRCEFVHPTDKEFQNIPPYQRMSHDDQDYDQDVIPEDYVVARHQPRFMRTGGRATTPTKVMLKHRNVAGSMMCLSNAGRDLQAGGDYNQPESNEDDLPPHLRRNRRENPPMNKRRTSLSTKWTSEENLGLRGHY

Compound: Cc1c2cc[n+](C)cc2c(C)c2c1[nH]c1ccccc12
- GI50 (P388): 0.887 µM (active)
- GI50 (P388/ADR): 55.5 µM (inactive)
- GI50 (SN12K1): 0.416 µM (active)

Compound: COC(=O)c1ccc(NC(S)=NNC(=O)c2ccccc2)cc1
- EC50 [1]: > 50 µM (active)

Compound: Cc1nnc(SCC2=C(C(=O)O)N3C(=O)C(NC(=O)Cn4nc(C(F)F)c(Cl)c4C)C3SC2)s1 (configuration not stated)
- EC50 (Streptococcus): 0.228 µM (active)
- EC50 [2]: < 0.06 µM (active)
- IC50 (Leucine aminopeptidase): 13.9 µM (active)

Compound: COc1ccc(NC(=O)Cn2c(-c3ccc(OC)cc3)cn(-c3ccc(C)cc3)c2=O)cc1
- IC50 [3]: 35.2 µM (active)
- IC50 (Prothrombin): 48.5 µM (active)
- IC50 [4]: > 100 µM (inactive)

Compound: Nc1ccc2cc(S(=O)(=O)O)cc(O)c2c1/N=N/c1ccc(NC(=O)Nc2ccc(/N=N/c3c(N)ccc4cc(S(=O)(=O)O)cc(O)c34)c(S(=O)(=O)O)c2)cc1S(=O)(=O)O
- GI50 (P388): 45.2 µM (inactive)
- GI50 (P388/ADR): 95.5 µM (inactive)
- GI50 (SN12K1): > 100 µM (inactive)

Compound: Cc1c2c(cc3c1[nH]c1ccccc13)C(c1ccc(Cl)cc1)=NCC2
- GI50 (P388): 0.398 µM (active)
- GI50 (P388/ADR): 0.428 µM (active)
- GI50 (SN12K1): 0.284 µM (active)

Compound: N=C(NOC(=O)COc1ccc2ccccc2c1)c1ccccn1
- EC50 [1]: > 50 µM (active)

Compound: O=CNc1cc(-c2ccc(C(=O)NC3CC3)cc2)cn2c(-c3ccc(F)c(Cl)c3)cnc12
- IC50 (H9c2): > 79 µM (inactive)

Compound: O=C(COC(=O)c1cncc(Br)c1)Nc1nnc(-c2ccccc2)o1
- IC50 [5]: 6.29 µM (active)

Compound: CCc1c(O)cc(=O)n(-c2ccccc2)c1-c1ccccc1
- IC50 (Leucine aminopeptidase): 23.5 µM (active)

Compound: COc1nc(C(Cl)(Cl)Cl)c(Cl)c(OC)c1Cl [PENCLOMEDINE]
- GI50 (P388): 8.61 µM (inactive)
- GI50 (P388/ADR): 40.6 µM (inactive)
- GI50 (SN12K1): 28.3 µM (inactive)

Compound: CSc1ccc(/C=C(\C(=O)O)c2ccc(S(=O)(=O)N3CCCC3)s2)cc1
- IC50 [5]: 5.2 µM (active)

Compound: Cc1cccc(-n2ccnc2CN2CCN(C3CCCC3)C(CCO)C2)c1 (configuration not stated)
- EC50 [1]: > 50 µM (active)

Compound: CCOC(=O)N1CCN(CCC(=O)c2ccc(Br)cc2)CC1
- EC50 [1]: > 50 µM (active)

Compound: C[N@+]12CC[C@H](CC1)C(=C(c1ccccc1)c1ccccc1)C2
- IC50 [5]: 3.04 µM (active)

Compound: C=CCn1c(SCC(=O)NCc2ccc3c(c2)OCO3)nnc1C1COc2ccccc2O1 (configuration not stated)
- IC50 (Leucine aminopeptidase): < 1 µM (active)

Compound: C=CCN1C(=O)/C(=C\Nc2cccc([N+](=O)[O-])c2)C(=O)N(CCCC)C1=O
- IC50 [3]: 34 µM (active)
- IC50 (Prothrombin): 42.7 µM (active)
- IC50 [4]: > 100 µM (inactive)

Compound: O=C(CCCN1CCC(C(O)c2ccc(F)cc2)CC1)c1ccc(F)cc1 (configuration not stated)
- GI50 (P388): 38.3 µM (inactive)
- GI50 (P388/ADR): 46.1 µM (inactive)
- GI50 (SN12K1): 56.4 µM (inactive)

Compound: Cc1cc(N2CCN(C3CCCCC3)CC2)nc2cccc(O)c12
- IC50 (Nonstructural protein 1): > 100 µM (active)
- EC50 [1]: > 50 µM (active)

Compound: Nc1ccc(/C=C/C(=O)c2ccco2)cc1
- IC50 [3]: 18 µM (active)
- IC50 (Prothrombin): 27.5 µM (active)
- IC50 [4]: > 100 µM (inactive)
- EC50 [6]: 7.4 µM (active)

Compound: C=CCCC(=O)N1C[C@H]2CON(C)[C@H]2C[C@H]1c1ccc(N2CCCCC2)cc1
- IC50 [3]: 52.2 µM (active)
- IC50 (Prothrombin): 57.2 µM (active)
- IC50 [4]: > 100 µM (inactive)

Compound: O=C1Nc2ccc(S(=O)(=O)NCc3ccccn3)c3cccc1c23
- IC50 [5]: 8.42 µM (active)

Compound: Cc1ccc(-c2nc3cc(C(N)=O)ccc3c(O)c2O)cc1
- IC50 (H9c2): 11.3 µM (active)
- EC50 [7]: 7.27 µM (active)
- EC50 [8]: 8.44 µM (inconclusive)

Compound: CC(NCc1ccc(Cl)cc1)C(O)c1ccccc1 (configuration not stated)
- EC50 [1]: > 50 µM (active)

Compound: NC(=NOC(=O)c1cccc([N+](=O)[O-])c1)c1cccc([N+](=O)[O-])c1
- IC50 [5]: 11.2 µM (active)

Compound: Oc1nc(CSc2nnc(-c3cccnc3)n2C2CCCCC2)nc2ccccc12
- IC50 (H9c2): 22.1 µM (active)

Compound: O=C(Nc1ccc2[nH]c(-c3ccc(Br)o3)nc2c1)c1ccco1
- EC50 [1]: > 50 µM (active)

Compound: COc1cc(CN2c3ccccc3C(=O)CS2(=O)=O)cc(OC)c1
- IC50 [3]: > 100 µM (inactive)
- IC50 (Prothrombin): > 100 µM (inactive)
- IC50 [4]: > 100 µM (inactive)

Compound: N/C(=N\O)N/N=C/c1cc2c(cc1Cl)OCO2
- GI50 (P388): 29.3 µM (inactive)
- GI50 (P388/ADR): 23.7 µM (inactive)
- GI50 (SN12K1): 31.3 µM (inactive)
